From patent publication US12662489B2 (Sitryx Therapeutics Limited, priority 2023, dated 2026)

Legend:
[1] = test system: human CD4+ T cells; assay: Human CD4+ T-cell proliferation assay (CFSE, CD3/28 beads); conditions: read-out: Proliferation IC50
[2] = target: T1, MTHFD2 recombinant human enzyme (Homo sapiens, UniProt P13995); assay: MTHFD2 inhibition assay (NAD(P)H-Glo luminescence); conditions: for MTHFD1/MTHFD2 IC50 ratio: selectivity of MTHFD2 inhibition over MTHFD1, band
T1 sequence (P13995 36-350): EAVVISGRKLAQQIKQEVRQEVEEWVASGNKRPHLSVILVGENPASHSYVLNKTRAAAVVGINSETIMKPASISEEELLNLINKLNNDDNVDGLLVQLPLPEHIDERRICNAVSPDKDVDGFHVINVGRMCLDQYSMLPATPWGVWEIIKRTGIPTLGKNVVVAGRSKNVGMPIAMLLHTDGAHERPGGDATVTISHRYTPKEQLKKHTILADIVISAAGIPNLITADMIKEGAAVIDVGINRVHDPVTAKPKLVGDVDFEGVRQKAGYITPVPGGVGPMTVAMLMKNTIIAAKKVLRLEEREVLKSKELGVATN

[3] = target: T2, MTHFD1 recombinant human enzyme (Homo sapiens, UniProt P11586); assay: MTHFD1 inhibition assay (NAD(P)H-Glo luminescence); conditions: MTHFD1 IC50, recombinant human enzyme 200 nM, NADP, band
T2 sequence (P11586 2-291 limits assumed): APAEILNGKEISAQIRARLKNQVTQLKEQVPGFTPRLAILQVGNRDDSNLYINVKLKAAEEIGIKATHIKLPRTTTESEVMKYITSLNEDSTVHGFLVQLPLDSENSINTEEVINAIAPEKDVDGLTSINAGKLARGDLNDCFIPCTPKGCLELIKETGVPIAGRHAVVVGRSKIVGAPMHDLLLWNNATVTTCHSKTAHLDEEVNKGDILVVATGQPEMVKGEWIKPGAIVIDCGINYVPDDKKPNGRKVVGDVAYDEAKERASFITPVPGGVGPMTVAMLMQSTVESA

| Structure (SMILES) | IC50 [1] [nM] | IC50 [2] [nM] | MTHFD1/MTHFD2 IC50 ratio [2] | IC50 [3] [nM] |
| --- | --- | --- | --- | --- |
| COC[C@H]1CN(c2cc(C)c3c4c(c(=O)oc3c2C)CN(C(=O)c2ccc(C(=O)NS(=O)(=O)N3CCCC3)c(Cl)c2F)CC4)CCN1C [Example 178, (R)-2-chloro-3-fluoro-4-(8-(3-(methoxymethyl)-4-methylpiperazin-1-yl)-7,10-dimethyl-5-oxo-1,3,4,5-tetrahydro-2H-chromeno[3,4-c]pyridine-3-carbonyl)-N-(pyrrolidin-1-ylsulfonyl)benzamide] | 100 to 1000 | 10 to 100 | J (>30) | 100 to 1000 |
| COC[C@H]1CN(c2cc(C)c3c4c(c(=O)oc3c2C)CN(C(=O)c2cc(OC)c(C(=O)NS(=O)(=O)N3CC5CC5C3)cc2F)CC4)CCN1C (stereo partly drawn) [Example 249, N-((3-azabicyclo[3.1.0]hexan-3-yl)sulfonyl)-5-fluoro-2-methoxy-4-(8-((R)-3-(methoxymethyl)-4-methylpiperazin-1-yl)-7,10-dimethyl-5-oxo-1,3,4,5-tetrahydro-2H-chromeno[3,4-c]pyridine-3-carbonyl)benzamide] | 30 to 100 | 1 to 10 | J (>30) | 100 to 1000 |
| COC[C@H]1CN(c2cc(C)c3c4c(c(=O)oc3c2C)CN(C(=O)c2cc(N(C)C)c(C(=O)NS(=O)(=O)N3CCC[C@H]3C(F)(F)F)cc2F)CC4)CCN1C [Example 292, 2-(dimethylamino)-5-fluoro-4-(8-((R)-3-(methoxymethyl)-4-methylpiperazin-1-yl)-7,10-dimethyl-5-oxo-1,3,4,5-tetrahydro-2H-chromeno[3,4-c]pyridine-3-carbonyl)-N-(((S)-2-(trifluoromethyl)pyrrolidin-1-yl)sulfonyl)benzamide] | 1 to 10 | 10 to 100 | J (>30) | 100 to 1000 |
| CCOc1cc(C(=O)N2CCc3c(c(=O)oc4c(C)c(N5CCN(C)[C@@H](COC)C5)cc(C)c34)C2)c(Cl)cc1C(=O)NS(=O)(=O)N1CCCC1 [Example 330, (R)-5-chloro-2-ethoxy-4-(8-(3-(methoxymethyl)-4-methylpiperazin-1-yl)-7,10-dimethyl-5-oxo-1,3,4,5-tetrahydro-2H-chromeno[3,4-c]pyridine-3-carbonyl)-N-(pyrrolidin-1-ylsulfonyl)benzamide] | 100 to 1000 | 10 to 100 | J (>30) | 100 to 1000 |
| COC[C@H]1CN(c2ccc3c4c(c(=O)oc3c2C)CN(C(=O)c2cc(F)c(C(=O)NS(=O)(=O)C3(C)CC3)c(N3C5CCC3CC5)c2)CC4)CCN1C [Example 22, (R)-2-(7-azabicyclo[2.2.1]heptan-7-yl)-6-fluoro-4-(8-(3-(methoxymethyl)-4-methylpiperazin-1-yl)-7-methyl-5-oxo-1,3,4,5-tetrahydro-2H-chromeno[3,4-c]pyridine-3-carbonyl)-N-((1-methylcyclopropyl)sulfonyl)benzamide] | 10 to 30 | 1 to 10 | F (<3) | 1 to 10 |
| COC[C@H]1CN(c2cc(Cl)c3c4c(c(=O)oc3c2C)CN(C(=O)c2cc(N(C)C)c(C(=O)NS(=O)(=O)N3C5CCC3COC5)cc2F)CC4)CCN1C [Example 322, N-((3-oxa-8-azabicyclo[3.2. 1]octan-8-yl)sulfonyl)-4-(10-chloro-8-((R)-3-(methoxymethyl)-4-methylpiperazin-1-yl)-7-methyl-5-oxo-1,3,4,5-tetrahydro-2H-chromeno[3,4-c]pyridine-3-carbonyl)-2-(dimethylamino)-5-fluorobenzamide] | 30 to 100 | 1 to 10 | J (>30) | 1000 to 5000 |
| COC[C@H]1CN(c2ccc3c4c(c(=O)oc3c2C)CN(C(=O)c2ccc(C(=O)NS(=O)(=O)C3(C)CC3)c(N3CCCC3)c2)CC4)CCN1C [Example 15, (R)-4-(8-(3-(methoxymethyl)-4-methylpiperazin-1-yl)-7-methyl-5-oxo-1,3,4,5-tetrahydro-2H-chromeno[3,4-c]pyridine-3-carbonyl)-N-((1-methylcyclopropyl)sulfonyl)-2-(pyrrolidin-1-yl)benzamide] | 1 to 10 | 10 to 100 | F (<3) | 10 to 100 |
| COC[C@H]1CN(c2cc(C)c3c4c(c(=O)oc3c2C)CN(C(=O)c2ccc(C(=O)NS(=O)(=O)N3CCCC3)c(OC(F)F)c2F)CC4)CCN1C [Example 171, (R)-2-(difluoromethoxy)-3-fluoro-4-(8-(3-(methoxymethyl)-4-methylpiperazin-1-yl)-7,10-dimethyl-5-oxo-1,3,4,5-tetrahydro-2H-chromeno[3,4-c]pyridine-3-carbonyl)-N-(pyrrolidin-1-ylsulfonyl)benzamide] | 100 to 1000 | 10 to 100 | G (^ 3 to 9.0) | 100 to 1000 |
| COC[C@H]1CN(c2cc(C)c3c4c(c(=O)oc3c2C)CN(C(=O)c2cc(N(C)C)c(C(=O)NS(=O)(=O)N3CCC[C@@H]3COC)cc2F)CC4)CCN1C [Example 311, 2-(dimethylamino)-5-fluoro-4-(8-((R)-3-(methoxymethyl)-4-methylpiperazin-1-yl)-7,10-dimethyl-5-oxo-1,3,4,5-tetrahydro-2H-chromeno[3,4-c]pyridine-3-carbonyl)-N-(((R)-2-(methoxymethyl)pyrrolidin-1-yl)sulfonyl)benzamide] | 1 to 10 | 1 to 10 | J (>30) | 1000 to 5000 |
| COC[C@H]1CN(c2cc(C)c3c4c(c(=O)oc3c2C)CN(C(=O)c2cc(F)c(C(=O)NS(=O)(=O)N3CCCC3)cc2C)CC4)CCN1C [Example 270, (R)-2-fluoro-4-(8-(3-(methoxymethyl)-4-methylpiperazin-1-yl)-7,10-dimethyl-5-oxo-1,3,4,5-tetrahydro-2H-chromeno[3,4-c]pyridine-3-carbonyl)-5-methyl-N-(pyrrolidin-1-ylsulfonyl)benzamide] | 1000 to 5000 | 1 to 10 | J (>30) | 1000 to 5000 |
| COC[C@H]1CN(c2cc(C)c3c4c(c(=O)oc3c2C)CN(C(=O)c2ccc(C(=O)NS(=O)(=O)N3CCCC3)c(N3CCCC3)c2F)CC4)CCN1C [Example 98, (R)-3-fluoro-4-(8-(3-(methoxymethyl)-4-methylpiperazin-1-yl)-7,10-dimethyl-5-oxo-1,3,4,5-tetrahydro-2H-chromeno[3,4-c]pyridine-3-carbonyl)-2-(pyrrolidin-1-yl)-N-(pyrrolidin-1-ylsulfonyl)benzamide] | 10 to 30 | 1 to 10 | F (<3) | 10 to 100 |
| COC[C@H]1CN(c2cc(C)c3c4c(c(=O)oc3c2C)CN(C(=O)c2cc(N(C)C)c(C(=O)NS(=O)(=O)N3C[C@@H]5C[C@H]3CO5)cc2F)CC4)CCN1C [Example 313, N-(((1S,4S)-2-oxa-5-azabicyclo[2.2.1]heptan-5-yl)sulfonyl)-2-(dimethylamino)-5-fluoro-4-(8-((R)-3-(methoxymethyl)-4-methylpiperazin-1-yl)-7,10-dimethyl-5-oxo-1,3,4,5-tetrahydro-2H-chromeno[3,4-c]pyridine-3-carbonyl)benzamide] | 30 to 100 | 1 to 10 | J (>30) | 100 to 1000 |
| COC[C@H]1CN(c2cc(C)c3c4c(c(=O)oc3c2C)CN(C(=O)c2ccc(C(=O)NS(=O)(=O)N3C5CCC3CC5)c(C)c2F)CC4)CCN1C [Example 241] | 100 to 1000 | 10 to 100 | H (>9.0 to 30) | 100 to 1000 |
| COC[C@H]1CN(c2ccc3c4c(c(=O)oc3c2C)CN(C(=O)c2ccc(C(=O)NS(=O)(=O)N(C)C)c(OC3CCC3)c2F)CC4)CCN1C [Example 50, (R)-2-cyclobutoxy-N-(N,N-dimethylsulfamoyl)-3-fluoro-4-(8-(3-(methoxymethyl)-4-methylpiperazin-1-yl)-7-methyl-5-oxo-1,3,4,5-tetrahydro-2H-chromeno[3,4-c]pyridine-3-carbonyl)benzamide] | 1 to 10 | 1 to 10 | F (<3) | 1 to 10 |
| COC[C@H]1CN(c2cc(C)c3c4c(c(=O)oc3c2C)CN(C(=O)c2cc(N(C)C)c(C(=O)NS(=O)(=O)N3CC[C@@H](F)C3)cc2F)CC4)CCN1C [Example 314, 2-(dimethylamino)-5-fluoro-N-(((R)-3-fluoropyrrolidin-1-yl)sulfonyl)-4-(8-((R)-3-(methoxymethyl)-4-methylpiperazin-1-yl)-7,10-dimethyl-5-oxo-1,3,4,5-tetrahydro-2H-chromeno[3,4-c]pyridine-3-carbonyl)benzamide] | 1 to 10 | 1 to 10 | H (>9.0 to 30) | 100 to 1000 |
